# Experimental data published in patent US20100196355A1, “Immunophilin Ligands and Methods for Modulating Immunophilin and Calcium Channel Activity” (Wyeth, priority 2007, published 2010).
# Key:
# His6-tagged FKBP52 = molecular target: T1, His6-tagged FKBP52 (Homo sapiens, UniProt Q02790); assay: [3H]-FK506 binding on Ni-chelated FLASH plate
# T1 construct: made in house
# T1 sequence (Q02790 1-459): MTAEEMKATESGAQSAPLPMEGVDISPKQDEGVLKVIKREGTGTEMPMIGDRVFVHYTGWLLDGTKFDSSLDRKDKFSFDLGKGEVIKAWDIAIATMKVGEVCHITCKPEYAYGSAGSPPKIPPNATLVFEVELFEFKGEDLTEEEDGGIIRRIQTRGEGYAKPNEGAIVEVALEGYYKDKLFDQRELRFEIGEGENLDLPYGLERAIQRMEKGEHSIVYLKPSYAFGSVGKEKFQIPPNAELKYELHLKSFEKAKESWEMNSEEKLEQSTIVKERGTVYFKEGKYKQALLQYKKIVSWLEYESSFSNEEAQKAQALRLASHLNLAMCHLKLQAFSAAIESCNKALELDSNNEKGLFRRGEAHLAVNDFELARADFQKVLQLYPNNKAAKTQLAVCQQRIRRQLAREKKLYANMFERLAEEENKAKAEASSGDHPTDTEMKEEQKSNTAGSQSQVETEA
# Description: Reactions were carried out in triplicate at 25° C. for 30 min. Kd were calculated using methods described by Carreras (Anal. Biochem. 298, 57-61 (2001)).
# [1] = tested on: rat cortical neuron cultures; assay: Transcriptional profiling of cortical neuron cultures; format: cell-based; conditions: 10 μM
# Description: Cortical neuron cultures were prepared from E16 rat embryos. After plating for 24 hrs, cultures were treated with 10 μM immunophilin ligands and the corresponding vehicle. After treatment for 4 hrs, 12 hrs, 24 hrs and 48 hrs, cells were lysed. Total RNA from each sample was extracted with the RNEASY® Mini Kit (QIAGEN®). Double stranded cDNA was synthesized from 2 μg of each RNA sample using the […]® System (INVITROGEN®), purified, transcribed in vitro to prepare biotinylated cRNA using T7 RNA polymerase in the presence of biotin labeled UTP and CTP. The fragmented cRNAs were hybridized to a Rat Genome 230 2.0 […]® (AFFYMETRIX®, Santa Clara, Calif.) as recommended by the manufacturer. Hybridized arrays were stained according to manufacture protocols on a Fluidics Station 450 and subsequently scanned on an AFFYMETRIX® scanner 3000. The raw data was generated using AFFYMETRIX® MAS 5.0 Software. Transcriptional profiling data were analyzed in Ingenuity.
smiles,measurement,setting,value
"CO[C@H]1C[C@@H]2CC[C@@H](C)[C@@](O)(O2)C(=O)C(=O)N2CCCCC2C(=O)O[C@H]([C@H](C)C[C@@H]2CC[C@@H](O)[C@H](OC)C2)CC(=O)[C@H](C)/C=C(\C)[C@@H](O)[C@@H](OC)C(=O)[C@H](C)C[C@H](C)C2C=C[C@H](/C=C/1C)ON2c1ccccc1 (stereo partly drawn) [Rapamycin analogue I, 9,27-dihydroxy-3-{2-[4-hydroxy-3-methoxycyclohexyl]-1-methylethyl}-10,21-dimethoxy-6,8,12,14,20,26-hexamethyl-37-phenyl-4,9,10,12,13,14,15,18,21,22,23,24,25,26,27,32,33,34,34a-nonadecahydro-3H-23,27-epoxy-18,15-(epoxyimino)pyrido[2,1-c][1,4]oxazacyclohentriacontine-1,5,11,28,29(6H, 31H)-pentone]",Kd,His6-tagged FKBP52,0.55 ± 0.05 nM
same,"fold change vs DMSO, ACTA1",[1]; ACTA1,−1.53 fold
same,"fold change vs DMSO, ACTA2",[1]; ACTA2,1.41 fold
same,"fold change vs DMSO, AKAP5",[1]; AKAP5,−2.56 fold
same,"fold change vs DMSO, ASPH",[1]; ASPH,−3.19 fold
same,"fold change vs DMSO, ATP2A2",[1]; ATP2A2,1.85 fold
same,"fold change vs DMSO, ATP2B1",[1]; ATP2B1,1.53 fold
same,"fold change vs DMSO, ATP2B3",[1]; ATP2B3,−1.54 fold
same,"fold change vs DMSO, ATP2C1",[1]; ATP2C1,−1.38 fold
same,"fold change vs DMSO, CABIN1",[1]; CABIN1,1.33 fold
same,"fold change vs DMSO, CACNA1B",[1]; CACNA1B,−1.77 fold
same,"fold change vs DMSO, CACNA1C",[1]; CACNA1C,1.48 fold
same,"fold change vs DMSO, CACNA1D",[1]; CACNA1D,−1.72 fold
same,"fold change vs DMSO, CACNA2D1",[1]; CACNA2D1,3.47 fold
same,"fold change vs DMSO, CACNB1",[1]; CACNB1,−1.32 fold
same,"fold change vs DMSO, CACNG2",[1]; CACNG2,−1.8 fold
same,"fold change vs DMSO, CACNG3",[1]; CACNG3,−3.73 fold
same,"fold change vs DMSO, CALM1",[1]; CALM1,−1.74 fold
same,"fold change vs DMSO, CALM2",[1]; CALM2,−1.22 fold
same,"fold change vs DMSO, CALM3",[1]; CALM3,−1.34 fold
same,"fold change vs DMSO, CALR",[1]; CALR,1.18 fold
same,"fold change vs DMSO, CAMK1",[1]; CAMK1,−1.6 fold
same,"fold change vs DMSO, CAMK1G",[1]; CAMK1G,−2.47 fold
same,"fold change vs DMSO, CAMK2A",[1]; CAMK2A,−2.03 fold
same,"fold change vs DMSO, CAMK2B",[1]; CAMK2B,−1.82 fold
same,"fold change vs DMSO, CAMK2D",[1]; CAMK2D,−1.45 fold
same,"fold change vs DMSO, CAMK4",[1]; CAMK4,−1.42 fold
same,"fold change vs DMSO, CHP",[1]; CHP,1.65 fold
same,"fold change vs DMSO, CREBBP",[1]; CREBBP,4.14 fold
same,"fold change vs DMSO, CYP27B1",[1]; CYP27B1,−1.27 fold
same,"fold change vs DMSO, DHCR7",[1]; DHCR7,1.84 fold
same,"fold change vs DMSO, DSCR1",[1]; DSCR1,−1.93 fold
same,"fold change vs DMSO, DSCR1L1",[1]; DSCR1L1,−4.44 fold
same,"fold change vs DMSO, EBP",[1]; EBP,1.45 fold
same,"fold change vs DMSO, FDFT1",[1]; FDFT1,1.94 fold
same,"fold change vs DMSO, FDPS",[1]; FDPS,2.34 fold
same,"fold change vs DMSO, GRIA1",[1]; GRIA1,−2.78 fold
same,"fold change vs DMSO, GRIA2",[1]; GRIA2,2.74 fold
same,"fold change vs DMSO, GRIN1",[1]; GRIN1,−2.41 fold
same,"fold change vs DMSO, GRIN2B",[1]; GRIN2B,−1.94 fold
same,"fold change vs DMSO, GRIN3A",[1]; GRIN3A,−1.84 fold
same,"fold change vs DMSO, GRINA",[1]; GRINA,−1.21 fold
same,"fold change vs DMSO, HDAC5",[1]; HDAC5,1.78 fold
same,"fold change vs DMSO, HDAC6",[1]; HDAC6,−1.18 fold
same,"fold change vs DMSO, HDAC7A",[1]; HDAC7A,1.24 fold
same,"fold change vs DMSO, HMGCR",[1]; HMGCR,2.24 fold
same,"fold change vs DMSO, HTR3A",[1]; HTR3A,−1.57 fold
same,"fold change vs DMSO, IDI1",[1]; IDI1,3.24 fold
same,"fold change vs DMSO, ITPR3",[1]; ITPR3,−1.85 fold
same,"fold change vs DMSO, LSS",[1]; LSS,13.3 fold
same,"fold change vs DMSO, MAPK1",[1]; MAPK1,1.29 fold
same,"fold change vs DMSO, MAPK3",[1]; MAPK3,−1.31 fold
same,"fold change vs DMSO, MVD",[1]; MVD,1.94 fold
same,"fold change vs DMSO, MVK",[1]; MVK,1.6 fold
same,"fold change vs DMSO, MYH1",[1]; MYH1,−2.18 fold
same,"fold change vs DMSO, MYH6",[1]; MYH6,−7.18 fold
same,"fold change vs DMSO, MYH7",[1]; MYH7,−6.11 fold
same,"fold change vs DMSO, MYL6B",[1]; MYL6B,−1.69 fold
same,"fold change vs DMSO, NQO1",[1]; NQO1,1.8 fold
same,"fold change vs DMSO, PMVK",[1]; PMVK,1.33 fold
same,"fold change vs DMSO, PPP3CB",[1]; PPP3CB,−1.3 fold
same,"fold change vs DMSO, PPP3CC",[1]; PPP3CC,−1.18 fold
same,"fold change vs DMSO, PPP3R1",[1]; PPP3R1,−1.49 fold
same,"fold change vs DMSO, PRKAG1",[1]; PRKAG1,−1.21 fold
same,"fold change vs DMSO, PRKAR1A",[1]; PRKAR1A,1.08 fold
same,"fold change vs DMSO, PRKAR1B",[1]; PRKAR1B,−3.36 fold
same,"fold change vs DMSO, PRKAR2A",[1]; PRKAR2A,−1.56 fold
same,"fold change vs DMSO, PRKAR2B",[1]; PRKAR2B,−1.56 fold
same,"fold change vs DMSO, RAP1B",[1]; RAP1B,−1.29 fold
same,"fold change vs DMSO, SC5DL",[1]; SC5DL,2.01 fold
same,"fold change vs DMSO, SQLE",[1]; SQLE,1.92 fold
same,"fold change vs DMSO, TPM1",[1]; TPM1,−2.55 fold
same,"fold change vs DMSO, TPM3",[1]; TPM3,−2.04 fold
same,"fold change vs DMSO, TRPC1",[1]; TRPC1,−1.21 fold
same,"fold change vs DMSO, TRPC3",[1]; TRPC3,−2.4 fold
same,"fold change vs DMSO, TRPC4",[1]; TRPC4,−4.56 fold
same,"fold change vs DMSO, TRPV6",[1]; TRPV6,1.65 fold
same,"fold change, PLAU",[1]; plasminogen activator (PLAU),−40 fold
